{"source": "patent US6835563B1", "about": "“Compositions and methods for increasing cholesterol efflux and raising HDL ATP binding cassette transporter protein ABC1” (CV Therapeutics, priority 1999, dated 2004)", "key": {"[1]": {"test_system": "RAW 264.7 cells", "assay": "Apo A-I-mediated cholesterol efflux from cholesterol-loaded RAW 264.7 macrophage cells", "settings": "for increase in apoAI-induced cholesterol efflux: 9 cis-retinoic acid 30 ng/ml, 22(R)hydroxycholesterol 5 μg/ml, fenfibrate 3 μg/ml, PGI2 25 nm, PGE1 25 nM", "experimental": "Assay to Measure Lipid Efflux: Apo AI-mediated efflux of cholesterol and, phospholipid was assayed according to the method described in. […] RAW 264.7 cells were cholesterol-loaded through the scavenger receptor by 24-hour incubation with acetylated LDL as described in Smith et al., J. Biol. Chem., 271:30647-30655 (1996). Briefly, RAW 264.7 cells in 24-well dishes were cholesterol-loaded and labeled overnight in 0.5 ml of DMEM supplemented with 50 μl/ml 1M glucose, 10 μl/ml 200 mM glutamine and 2% BSA and with 50 μg/ml acetylated low density lipoprotein (AcLDL) and [^3H]-cholesterol which had been pre-incubated for 30 minutes at 37° C. with AcLDL to yield a final concentration of 0.33 μCi/ml [^3H]-cholesterol. Cells were subsequently washed five times with PBS containing 1% BSA and incubated overnight (16-18 hours) in DMEM/BSA to allow for equilibrium of cholesterol pools. After equilibrium of cholesterol pools, cells were rinsed four times with PBS/BSA and incubated for one hour at 37° C. with DMEM/BSA before the efflux incubations. Efflux medium (DMEM/BSA) containing either albumin alone (control), albumin plus HDL (40 μg protein/ml), or albumin plus apo A-I (10 μg/ml, Biodesign International, Kennebunk, Me.) was added and the cells were incubated for 4, 24, or 48 hours. […] The radioactivity found in the culture medium was measured by scintillation counting after a 15-minute centrifugation at 12,000 g. The radioactivity in the cells was measured by scintillation counting after solubilization in 0.5 ml of 0.2M NaOH (Smith et al., J. Biol. Chem., 271:30647-30655 (1996)) or extraction in hexane:isopropanol (3:2 v/v) as described in Francis, et al., J. Clin. Invest., 96, 78-87 (1995). […] The efflux of cholesterol or phospholipid was expressed as the percentage of tritiated lipid counts in the medium over the total tritiated lipid counts recovered from the cells and medium (cpm medium/cpm (medium+lysate)×100).\nBriefly, RAW 264.7 cells suspended at a density of 1.25×10^5 cells/ml were grown in DMEM/10% FBS supplemented with pyruvate. After 24 hours, the medium was removed and replaced with DMEM/BSA plus radiolabeled cholesterol (1 μCi/ml ^3[H]-cholesterol) and 50 μg/ml of acetylated LDL for 24 hours. The cells were then maintained for 24 hours in equilibrium medium consisting of DMEM/BSA plus either apo A-I alone (20 μg/ml), apo A-I and 8-bromo 3′, 5′ cAMP (1 mM) or apo A-I and rolipram (50 μM)."}, "[2]": {"test_system": "ABC1 mRNA", "assay": "ABC1 mRNA by RT-PCR in RAW 264.7 cells", "format": "cell-based, mouse", "settings": "single ligand 10 μM, 24 hours, serum-free DMEM/BSA", "description": "RT-PCR: Quantitative PCR was carried out using the GeneAmp 5700 Sequence. Detection System (Perkin-Elmer Applied Biosystems, Foster City, Calif.). Briefly, 500 ng of DNase-treated mRNA was reverse transcribed using random hexamer primers at 2.5 μM. Approximately 5% of this reaction was amplified by PCR using the SYBR green core kit (PE. Applied Biosystems, Foster City, Calif.; Cat. #4304886) and human ABC1 primers LF: 5′-[…] (SEQ ID NO: 11) and LR: 5′-[…] (SEQ ID NO: 12) to yield an 82 bp fragment corresponding to nucleotides 7018-7099 of human ABC1. PCR cycle conditions were as follows: 10 minutes 95° C.; followed by 40 cycles of 95° C., 15 seconds; and 60° C., 60 seconds. The mRNA in each sample was quantitated by detecting the increase in fluorescence caused by SYBR green binding to the double-stranded amplification product generated during each PCR cycle. All samples were run in triplicate and normalized against 0-actin mRNA, amplified in parallel reactions with primers actinF: 5′-[…] (SEQ ID NO: 54) and actinB: 5′-[…] […]\nMouse RAW 264.7 cells were grown to subconfluence in DMEM/10% FBS and then treated for 24 hours in serum-free DMEM/BSA with either 9-cis retinoic acid (10 μM), 20-hydroxycholesterol (10 μM), or both ligands together (20 μM total). […] RNA was extracted, treated with DNase, and ABC1 mRNA measured by RT-PCR using PE Biosystems SYBR Green Technology as described in Example 9."}, "[3]": {"test_system": "ABC1 5' flanking region with mutated sterol response element", "assay": "Luciferase reporter construct 1080-1643 with mutated sterol response element in RAW 264.7 cells", "format": "cell-based, mouse", "settings": "mutated sequence nt 1080-1643, sterol response element mutated", "description": "(§1) Luciferase Assay: Following transfection, the cells in each well were lysed in 70 μl of 1× cell lysis reagent (Promega, Madison, Wis., Cat. #E3971), subjected to one freeze-thaw cycle, and the lysate cleared by centrifugation for 5 minutes at 12,000 g. After centrifugation, 100 μl of luciferase assay reagent (Promega, Madison, Wis.; Cat. #E1501) was added to 10 μl of lysate. The luciferase activity of each lysate was measured as light units using a luminometer. Additionally, the β-galactosidase activity of each lysate was measured using the chemiluminescent assay reagents supplied in the Galacto-light kit according to the manufacturer's instructions (Tropix Inc., Bedford, Mass.: Cat. #BL100G). The normalized luciferase activity for each lysate was determined by dividing the luciferase activity value by the determined 0-galactosidase value and reported as relative light units.\nTransfection of Reporter Constructs: The RAW 264.7 cells were maintained in culture and transfected with either pGL3-Basic (1 μg), pAPR1 (1 μg), or one of the other reporter constructs according to the method described in Example 15. […] The luciferase activity was measured and reported as relative light units as described in Example 15. […]"}, "[4]": {"test_system": "ABC1 5' flanking region", "assay": "Luciferase reporter constructs with portions of the ABC1 5' flanking region in RAW 264.7 cells", "format": "cell-based, mouse", "settings": "wild-type sequence nt 1080-1643 of SEQ ID NO: 3", "description": "as §1\nConstruction of Reporter Constructs: Reporter construct pAPR1 and control reporter construct pGL3-Basic were obtained as described in Example 15. […]\nTransfection of Reporter Constructs: The RAW 264.7 cells were maintained in culture and transfected with either pGL3-Basic (1 μg), pAPR1 (1 μg), or one of the other reporter constructs according to the method described in Example 15. […] The luciferase activity was measured and reported as relative light units as described in Example 15."}, "[5]": {"test_system": "normal fibroblasts", "assay": "Apo A-I-mediated lipid efflux from normal fibroblasts with ABC1 transport inhibitors", "format": "cell-based, human", "settings": "0.2 or 0.4 mM, 6 hours, 5 μg/ml apo A-I", "description": "To test whether inhibition of ABC1 could affect the process of apolipoprotein-mediated cholesterol efflux, two compounds reported to be ABC1 inhibitors were tested in assays which monitor apolipoprotein mediated cholesterol efflux. […] The apolipoprotein-mediated cholesterol efflux assays were performed as described in Example 1 with the noted changes.\nCholesterol-loaded and [^3H]cholesterol-labeled normal fibroblasts (n=3) were incubated for 6 hours with or without 5 μg/ml apo A-I and either 0, 0.2 mM, or 0.4 mM DIDS. In addition, cholesterol-loaded and [^3H]cholesterol-labeled normal fibroblasts (n=3) were incubated for 6 hours with or without 5 μg/ml apo A-I and either 0, 0.2 mM, or 0.4 mM BSP. […] The results are shown in FIG. 5 as the mean±SD (n=3) of efflux in the presence of apo A-I after subtraction of values for apo A-I-free medium. […] The results of these tests mimic the efflux defect in fibroblasts derived from patients with TD, described in Example 1."}, "[6]": {"test_system": "ABC1", "settings": "dose-dependent; Becq et al. 1997, Hamon et al. 1997; cited from earlier work"}, "[7]": {"test_system": "ABC1 promoter", "assay": "pAPR1 luciferase reporter under control of the ABC1 promoter in RAW 264.7 cells", "format": "cell-based, mouse", "settings": "pAPR1-transfected RAW 264.7; 10 μM each ligand (20 μM total for both), 24 hours", "from_the_text": "Construction of Reporter Plasmids: Plasmid pGL3-Basic (Promega, Madison, Wis.; Cat. #E1751) was used as a control plasmid containing the promoterless luciferase gene. The reporter construct containing the ABC1 promoter and luciferase gene was made by cloning a genomic fragment from the 5′ flanking region of the ABC1 gene (hAPRI 5′ promoter, corresponding to nucleotides 1080-1643 of SEQ ID NO: 3) into the Sacd site of the GL3-Basic plasmid to generate plasmid GL-6a. Next, plasmid GL-6a was digested with SneI and Acc651. […]\nas §1, with “After centrifugation, 100 μl of luciferase assay reagent (Promega, Madison, Wis.; Cat. #E1501) was added to 10 μl of lysate.” left out, “units. […]” for “units.”"}, "[8]": {"test_system": "normal skin fibroblasts", "assay": "Apo A-I-mediated cholesterol efflux after antisense inhibition of ABC1 mRNA", "format": "cell-based, human", "settings": "30 μM oligonucleotide, apo A-I-mediated efflux after 12 hours", "description": "Normal skin fibroblasts were labeled with [^3H]cholesterol as described in Example 1.\nThe cells were then loaded with oligonucleotide by scraping in the presence of either 30 μM control. Morpholino oligonucleotide (5′-[…]-3′ corresponding to the antisense complement of a β-globin thalassemic mRNA; SEQ ID NO: 52) or […] ABC1 antisense. Morpholino oligonucleotide (5′-[…]-3′; SEQ ID NO: 53) and reseeding on new dishes. Control cells were mock-loaded after [^3H]cholesterol-labeling by scraping and reseeding in the absence of oligonucleotide. […] The results are shown in FIG. 6 as the mean±SEM of three separate experiments, normalized to the value for apo A-I-specific efflux in the absence of oligonucleotide in each experiment."}}}
{"compound": "CC(C)OC(=O)C(C)(C)Oc1ccc(C(=O)c2ccc(Cl)cc2)cc1", "note": "[fenfibrate]", "values": [{"measurement": "increase in apoAI-induced cholesterol efflux", "setting": "[1]", "result": "~2", "unit": "fold"}]}
{"compound": "CCCCC[C@H](O)/C=C/[C@@H]1[C@H]2C/C(=C/CCCC(=O)O)O[C@H]2C[C@H]1O", "note": "[PGI2, prostacyclin PGI2]", "values": [{"measurement": "increase in apoAI-induced cholesterol efflux", "setting": "[1]", "result": "~2", "unit": "fold"}]}
{"compound": "CC(C)CCC[C@](C)(O)[C@H]1CC[C@H]2[C@@H]3CC=C4C[C@@H](O)CC[C@]4(C)[C@H]3CC[C@@]21C", "note": "[20(S)-hydroxycholesterol]", "values": [{"measurement": "ABC1 mRNA expression", "setting": "[2]", "result": "increase in ABC1 mRNA expression"}, {"measurement": "transcriptional response (luciferase activity)", "setting": "[3]", "result": "did not produce a transcriptional response"}, {"measurement": "transcriptional response (luciferase activity)", "setting": "[4]", "result": "produced a transcriptional response"}]}
{"compound": "CCCCC[C@H](O)/C=C/[C@H]1[C@H](O)CC(=O)[C@@H]1CCCCCCC(=O)O", "note": "[PGE1, prostaglandin E1]", "values": [{"measurement": "increase in apoAI-induced cholesterol efflux", "setting": "[1]", "result": "~3", "unit": "fold"}]}
{"compound": "CC(C)CC[C@@H](O)[C@@H](C)[C@H]1CC[C@H]2[C@@H]3CC=C4C[C@@H](O)CC[C@]4(C)[C@H]3CC[C@]12C", "note": "[22(R)-hydroxycholesterol]", "values": [{"measurement": "transcriptional response (luciferase activity)", "setting": "[3]", "result": "did not produce a transcriptional response"}]}
{"compound": "O=C1OC(c2ccc(O)c(S(=O)(=O)O)c2)(c2ccc(O)c(S(=O)(=O)O)c2)c2c(Br)c(Br)c(Br)c(Br)c21", "note": "[BSP, sulphobromophthaleine]", "values": [{"measurement": "effect on apo A-I-mediated efflux of tritiated cholesterol", "setting": "[5]", "result": "inhibit"}, {"measurement": "anion transport activities of ABC1", "setting": "[6]", "result": "inhibit"}]}
{"compound": "CC1=C(/C=C/C(C)=C\\C=C\\C(C)=C\\C(=O)O)C(C)(C)CCC1", "note": "[9-cis retinoic acid]", "values": [{"measurement": "ABC1 mRNA expression", "setting": "[2]", "result": "increase in ABC1 mRNA expression"}, {"measurement": "cholesterol efflux", "setting": "[1]; 0.3 ng/ml 9-cis-RA with apo A-I", "result": 1522, "unit": "c.p.m."}, {"measurement": "cholesterol efflux", "setting": "[1]; 3.0 ng/ml 9-cis-RA with apo A-I", "result": 3568, "unit": "c.p.m."}, {"measurement": "cholesterol efflux", "setting": "[1]; 30 ng/ml 9-cis-RA with apo A-I", "result": 8597, "unit": "c.p.m."}, {"measurement": "increase in apoAI-induced cholesterol efflux", "setting": "[1]", "result": "~3", "unit": "fold"}, {"measurement": "increase in luciferase reporter activity compared with EtOH control", "setting": "[7]", "result": 16, "unit": "fold"}, {"measurement": "transcriptional response (luciferase activity)", "setting": "[4]", "result": "produced a transcriptional response"}]}
{"compound": "ABC1 antisense. Morpholino oligonucleotide: Morpholino 5′-CATGTTGTTCATAGGGTGGGTAGCTC-3′; SEQ ID NO: 53, directed against ABC1 mRNA (all phosphorodiamidate morpholino (PMO))", "values": [{"measurement": "reduction in cholesterol efflux compared with control anti-sense oligonucleotide", "setting": "[8]", "result": 50, "unit": "%"}]}
